In ChEMBL document CHEMBL1126761, “A novel constrained reduced-amide inhibitor of HIV-1 protease derived from the sequential incorporation of gamma-turn mimetics into a model substrate” (J Med Chem, 1993):
*1 amine or outer side, *2 acyl side, *3 side chain or, on linkers, in order; H or OH if unused. Where a SMILES comes first, the peptide text is derived from it. [ ]: non-standard residue; d: D form. X1 = CC(N[*:1])C1=CCC(=O)N([C@@H](Cc2ccccc2)C(=O)[*:2])CC1; X2 = O=C([C@@H]1CCCN1C[C@H](Cc1ccccc1)N[*:1])[*:2]

Molecular target: Human immunodeficiency virus type 1 protease (Human immunodeficiency virus 1, UniProt Q72874)
Assay: Inhibition constant was determined against HIV-1 protease

Row | SMILES | Ki [µM]
1 | COC(=O)[C@@H](NC(=O)[C@@H](NC(=O)[C@H](C)N1CCC([C@H](C)NC(=O)[C@H](C)N)=CC(Cc2ccccc2)C1=O)C(C)C)C(C)C (stereo in doubt; form 2) | 147
2 | COC(=O)[C@@H](NC(=O)[C@@H](NC(=O)[C@H](C)N1CCC([C@H](C)NC(=O)[C@H](C)N)=CC(Cc2ccccc2)C1=O)C(C)C)C(C)C (stereo in doubt; form 1) | 372
3 | COC(=O)[C@@H](NC(=O)[C@@H](NC(=O)[C@H](C)N1CCC([C@H](C)NC(=O)[C@H](C)N)=CC(Cc2ccccc2)C1)C(C)C)C(C)C (stereo in doubt; form 1) | 0.43
4 | COC(=O)[C@@H](NC(=O)[C@H](C(C)C)N1CCC(C(Cc2ccccc2)NC(=O)[C@H](C)NC(=O)[C@H](C)NC(=O)[C@@H](N)CO)=CCC1=O)C(C)C (stereo in doubt; form 1) | > 2000
5 | COC(=O)[C@@H](NC(=O)[C@H](C(C)C)N1CCC(C(Cc2ccccc2)NC(=O)[C@H](C)NC(=O)[C@H](C)NC(=O)[C@@H](N)CO)=CCC1=O)C(C)C (stereo in doubt; form 2) | 1700
6 | CC(NC(=O)[C@@H](N)CO)C1=CCC(=O)N([C@@H](Cc2ccccc2)C(=O)N2CCC[C@H]2C(=O)N[C@H](C(=O)N[C@H](C(N)=O)C(C)C)C(C)C)CC1 (some centres not stated) (H-S[X1]PVV-NH2) | > 2000
7 | CC(C)[C@H](NC(=O)[C@@H](NC(=O)[C@@H]1CCCN1C[C@H](Cc1ccccc1)NC(=O)[C@H](C)NC(=O)[C@H](C)NC(=O)[C@@H](N)CO)C(C)C)C(N)=O (H-SAA[X2]VV-NH2) | 18.8
